Assay results published in PubChem BioAssay (NCI).
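Cells were grown in 96-well plates and exposed to each compound for 48 hours at five concentrations; endpoints were interpolated linearly between bracketing concentrations, or set to the highest concentration if not reached. TGI is the concentration that stops growth completely.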

Assays:
Assay in all cases: NCI anticancer screen, dose series, 48 h
SK-MEL-5 melanoma = tested on: SK-MEL-5 melanoma
KM12 colon = tested on: KM12 colon
A498 renal = tested on: A498 renal
NCI-H460 lung = tested on: NCI-H460 lung
PC-3 prostate = tested on: PC-3 prostate
HCT-116 colon = tested on: HCT-116 colon
LOX IMVI melanoma = tested on: LOX IMVI melanoma
CCRF-CEM leukemia = tested on: CCRF-CEM leukemia
UACC-257 melanoma = tested on: UACC-257 melanoma
MALME-3M melanoma = tested on: MALME-3M melanoma
MOLT-4 leukemia = tested on: MOLT-4 leukemia
T-47D breast = tested on: T-47D breast
UACC-62 melanoma = tested on: UACC-62 melanoma
SK-OV-3 ovarian = tested on: SK-OV-3 ovarian

Row | SMILES | TGI (SK-MEL-5 melanoma) | TGI (KM12 colon) | TGI (A498 renal) | TGI (NCI-H460 lung) | TGI (PC-3 prostate) | TGI (HCT-116 colon) | TGI (LOX IMVI melanoma) | TGI (CCRF-CEM leukemia) | TGI (UACC-257 melanoma) | TGI (MALME-3M melanoma) | TGI (MOLT-4 leukemia) | TGI (T-47D breast) | TGI (UACC-62 melanoma) | TGI (SK-OV-3 ovarian)
1 | CN(C)Nc1cc(=O)[nH]c(=O)[nH]1 | > 100 µM | > 100 µM | > 100 µM | > 100 µM | > 100 µM | > 100 µM | > 100 µM | > 100 µM | > 100 µM | > 100 µM | > 100 µM |  |  | 
2 | O=c1oc2ccc3ccccc3c2cc1-c1cn2ccccc2n1 | > 100 µM | > 100 µM |  | > 100 µM | > 100 µM | > 100 µM | > 100 µM | > 100 µM | > 100 µM |  | > 100 µM | > 100 µM | > 100 µM | > 100 µM
3 | Cc1cccc(C)c1NC(=O)C(C#N)C1=C(Cl)C(=O)c2ccccc2C1=O (configuration not stated) | 26.7 µM | 34.5 µM | 29.3 µM | 55.4 µM | 28.9 µM | 30.6 µM | 43.8 µM | 35.1 µM | 21.6 µM | 30.4 µM | 26.9 µM |  | 33.4 µM | 43.3 µM
4 | Oc1ccccc1/C=C/c1csnn1 | > 100 µM | > 100 µM | > 100 µM | > 100 µM |  | > 100 µM | 99.1 µM | > 100 µM | > 100 µM | > 100 µM | > 100 µM |  | > 100 µM | > 100 µM
5 | C=Cc1ccc(C)[n+](C[Si](C)(C)O[Si](C)(C)C)c1 | > 100 µM | > 100 µM |  |  |  | > 100 µM | > 100 µM | > 100 µM | > 100 µM | > 100 µM | > 100 µM |  | > 100 µM | > 100 µM
6 | CCCCNc1nc(C#N)c(N)s1 |  | > 100 µM |  | > 100 µM |  | > 100 µM | > 100 µM |  | > 100 µM | > 100 µM | > 100 µM |  | > 100 µM | > 100 µM
7 | CCSc1[nH]c(NC(=S)NC(=O)c2ccccc2Cl)c(C(N)=O)c1C(N)=O | > 10 µM | > 10 µM |  |  | > 10 µM |  | > 10 µM | > 10 µM | > 10 µM | > 10 µM | > 10 µM | > 10 µM | > 10 µM | > 10 µM
8 | O=C(c1cccs1)N(C(=S)N1CCN(c2ccccn2)CC1)c1ccccc1 | > 100 µM | > 100 µM |  | > 100 µM |  | > 100 µM | > 100 µM | > 100 µM | > 100 µM | > 100 µM | > 100 µM |  | > 100 µM | > 100 µM
9 | CC[C@]1(Cc2ccc(OC)c(OC)c2)C=[N+]([O-])O[C@H](OC2CCCC2(c2ccccc2)c2ccccc2)[C@@H]1OC(=O)c1ccccc1 (some centres not stated) | 12.7 µM | 22.9 µM |  | > 100 µM | > 100 µM | > 100 µM | > 27.5 µM | > 30.1 µM | > 66.5 µM |  | > 21.9 µM | > 27.2 µM | > 38.6 µM | > 100 µM
10 | O=c1[nH]c2cc([N+](=O)[O-])ccc2nc1/C(=N/Nc1ccccc1)C(O)c1ccccc1Cl (configuration not stated) | > 100 µM | > 100 µM |  | > 100 µM |  | > 100 µM | > 100 µM | > 100 µM | > 100 µM | > 100 µM | > 100 µM |  | > 100 µM | > 100 µM
11 | CC(=O)OC1COC(n2c(O)c(N=NC(N)=S)c3cc(Br)ccc32)C(OC(C)=O)C1OC(C)=O (configuration not stated) | > 100 µM | > 100 µM |  | > 100 µM |  | > 100 µM | > 100 µM | > 100 µM | > 100 µM | > 100 µM | > 100 µM |  | > 100 µM | > 100 µM
12 | O=C1NC2ON=C(c3ccccc3)C2C2ON=C(c3ccccc3)N12 (configuration not stated) | > 100 µM | > 100 µM |  | > 100 µM | > 100 µM |  | > 100 µM |  | > 100 µM | > 100 µM |  |  | > 100 µM | > 100 µM
13 | C=CCNC1=C2C[C@@H](C)C[C@@H](OC)[C@H](OC(=O)CCN)[C@H](C)/C=C(\C)[C@@H](OC(N)=O)[C@H](OC)/C=C\C=C(/C)C(=O)NC(=CC1=O)C2=O | 17.4 µM | 11.2 µM | 17.6 µM | 15.2 µM |  | 13.6 µM | 10.8 µM |  | 10.3 µM | 14.1 µM | 12.7 µM | 15.5 µM | 12.3 µM | 11 µM
14 | COC(=O)N/N=C(\Cc1ccccc1)CN(C)C | > 100 µM | > 100 µM | > 100 µM | > 100 µM |  | > 100 µM | > 100 µM | > 100 µM | > 100 µM | > 100 µM | > 100 µM |  | > 100 µM | > 100 µM
15 | O=C1/C(=C/c2cccc(Br)c2)CCc2ccccc21 |  | 20.7 µM |  | 28.5 µM | 27.7 µM | 19.9 µM | 28.5 µM | 13.4 µM | 28.6 µM | 26 µM | 42.1 µM |  | 22.4 µM | 47.2 µM
16 | O=C(CSc1nnc(-c2ccc(N=Cc3ccc(Cl)cc3)cc2)o1)Nc1ccccc1[N+](=O)[O-] | > 100 µM | > 100 µM |  | > 100 µM |  | > 100 µM | > 100 µM | > 100 µM | > 100 µM | > 100 µM | > 100 µM |  | > 100 µM | > 100 µM
17 | CC(C)OC(=O)c1ccc(NCc2cc(O)ccc2O)cc1Cl | 11.1 µM | > 38.1 µM | > 75.9 µM | 23.7 µM | 12.5 µM | 52.5 µM | > 100 µM |  | 37.1 µM |  | 8.97 µM |  | 18.6 µM | 49.2 µM
18 | C/C(=N\NS(=O)(=O)c1ccc(C)cc1)C(CN1CCCCC1)C(c1ccccc1)c1c(O)c2ccccc2oc1=O (configuration not stated) | > 100 µM | > 100 µM | > 100 µM | > 100 µM |  | > 100 µM | > 100 µM | > 100 µM | > 100 µM | > 100 µM |  |  | > 100 µM | > 100 µM
19 | NC(=O)N/N=C(\CC1OC(=O)c2ccccc21)c1ccco1 (configuration not stated) | > 100 µM | > 100 µM | > 100 µM | > 100 µM |  | > 100 µM | > 100 µM | > 100 µM | > 100 µM | > 100 µM | > 100 µM |  | > 100 µM | > 100 µM
